{
  "source": "patent US11752156B2",
  "about": "“Compositions and methods for treating hyperproliferative skin disorders” (Athenex HK Innovative Limited, priority 2018, dated 2023)",
  "key": {"[1]": {"test_system": "human keratinocytes in culture (cell line CCD-1106 KERTr)", "assay": "cell viability / cell growth of human keratinocytes in culture, KX01, calcipotriol and fixed-ratio combinations", "assay_type": "cell-based", "design": "cell growth (cell viability): unit not given here", "source_text": "Typical data from studies of the effects of compound KX01 provided in combination with calcipotriol on growth of human keratinocytes in culture (cell line CCD-1106 KERTr) are shown in FIGS. 1 to 3 and Tables 1 to 6. FIG. 1 and Tables 1 and 2 show the degree of growth inhibition found in a typical study performed with KX01 and calcipotriol at a 1:5 ratio."}, "[2]": {"test_system": "squamous cell human carcinoma cell line (SCC A431)", "assay": "MTT cell proliferation assay, 72 hours, dark or blue light, squamous cell carcinoma", "assay_type": "cell-based", "conditions": "for inhibition at 0.02 µM / inhibition at 0.04 µM / inhibition at 0.08 µM / inhibition at 0.01 µM: Homo sapiens, read-out: growth inhibition relative to untreated control", "experimental": "The effects of combined treatment with KX01, a vitamin D derivative, and/or blue/UV light exposure were characterized using a cell proliferation assay. Cell proliferation was assessed by using an MTT assay. Cells were seeded in 96-well plate (3,000-5,000 cells per well) and treated with test compounds at varying concentrations (e.g. KX01: 5 to 80 nM; calcipotriol 5 to 1,280 nM) for 72 hours, either in the dark or exposed to blue light irradiation (for 2, 4, or 6 hours). To each well, 10 μl of 3-(4,5-dimethylthiazol-2-yl)-2,5-diphenyltetrazolium bromide (MTT) (RPI Corporation™) solution (5 mg/ml in PBS) was added and incubated at 37° C. for 3 hours. Next, 100 μl of 20% SDS was added to each well. After overnight incubation at 37° C., the absorbance in each well was measured at 570 nm in a microplate reader (Molecular Devices™). The cell growth curve and GI50s were calculate using GraphPad Prism™ 5 software. Similar studies were performed using a squamous cell carcinoma cell line (SCC A431). Tables 19 and 20 show the results of cell growth inhibition studies (expressed as a percentage relative to control cell growth) for treatment with either KX01 or calcipotriol in combination with exposure to blue light. […] The percentage of growth inhibition relative to untreated control is shown. Tables 21 to 24 show the effects of combined treatment with KX01, calcipotriol, and exposure to blue light at 0 hours, 2 hours, 4 hours, and 6 hours of light exposure (respectively) on human squamous cell carcinoma cells. Values are expressed as the percentage of growth inhibition relative to cells grown under control conditions (0 hours blue light, [KX01]=0, [calcipotriol]=0). The percentage of growth inhibition relative to an untreated control is shown. […] Results are shown below in Tables 31 and 32, which show results for KX01 and calcipotriol (respectively). Values are expressed as the percentage of growth inhibition relative to cells grown under control conditions (0 hours blue light, [KX01]=0, [calcipotriol]=0). […] Results are shown below in Tables 33 to Table 36, which show results from 0, 2, 4, and 6 hours of blue light exposure (respectively). Values are expressed as the percentage of growth inhibition relative to cells grown under control conditions (0 hours blue light, [KX01]=0, [calcipotriol]=0)."}},
  "note": "Values joined by “and” are separate entries in the source; they are usually repeats but may differ in a detail not shown here. Identical values can stand only once. Like-named read-outs stand apart in the source and are kept apart here.",
  "data": [
    {"smiles": "O=C(Cc1ccc(-c2ccc(OCCN3CCOCC3)cc2)cn1)NCc1ccccc1", "note": "[KX01, N-benzyl-2-(5-{4-[2-(morpholine-4-yl)ethoxy]phenyl}pyridine-2-yl)acetamide]", "values": [
      {"measurement": "GI50", "setting": "[1]", "value": "38 nM and 36 nM"},
      {"measurement": "GI50", "setting": "[1]; Homo sapiens, CCD-1106", "value": 32, "unit": "nM"},
      {"measurement": "viability at 0.000333 µM", "setting": "[1]; Homo sapiens, CCD-1106, concentration 0.333 nM", "value": 100, "unit": "%"},
      {"measurement": "viability at 0.001 µM", "setting": "[1]; Homo sapiens, CCD-1106, concentration 1 nM", "value": 97, "unit": "%"},
      {"measurement": "viability at 0.003 µM", "setting": "[1]; Homo sapiens, CCD-1106, concentration 3 nM", "value": 90.9, "unit": "%"},
      {"measurement": "viability at 0.009 µM", "setting": "[1]; Homo sapiens, CCD-1106, concentration 9 nM", "value": 94.7, "unit": "%"},
      {"measurement": "viability at 0.027 µM", "setting": "[1]; Homo sapiens, CCD-1106, concentration 27 nM", "value": 67.1, "unit": "%"},
      {"measurement": "viability at 0.243 µM", "setting": "[1]; Homo sapiens, CCD-1106, concentration 243 nM", "value": 2.07, "unit": "%"},
      {"measurement": "viability at 0.729 µM", "setting": "[1]; Homo sapiens, CCD-1106, concentration 729 nM", "value": 6.66, "unit": "%"},
      {"measurement": "viability at 2.187 µM", "setting": "[1]; Homo sapiens, CCD-1106, concentration 2187 nM", "value": 8.91, "unit": "%"},
      {"measurement": "cell growth (cell viability)", "setting": "[1]; concentration 0.333 nM, 0.000333 µM", "value": "102.3 and 98.0"},
      {"measurement": "cell growth (cell viability)", "setting": "[1]; concentration 1 nM, 0.001 µM", "value": "99.9 and 101.3"},
      {"measurement": "cell growth (cell viability)", "setting": "[1]; concentration 3 nM, 0.003 µM", "value": "100.0 and 96.6"},
      {"measurement": "cell growth (cell viability)", "setting": "[1]; concentration 9 nM, 0.009 µM", "value": "100.2 and 98.2"},
      {"measurement": "cell growth (cell viability)", "setting": "[1]; concentration 27 nM, 0.027 µM", "value": "79.8 and 80.1"},
      {"measurement": "cell growth (cell viability)", "setting": "[1]; concentration 729 nM, 0.729 µM", "value": "9.9 and 7.3"},
      {"measurement": "cell growth (cell viability)", "setting": "[1]; concentration 2187 nM, 2.187 µM", "value": "14.9 and 9.5"},
      {"measurement": "inhibition at 0.02 µM", "setting": "[2]; A-431, 0 h, KX01 20 nM, blue light 0 h", "value": 99, "unit": "%"},
      {"measurement": "inhibition at 0.04 µM", "setting": "[2]; A-431, 0 h, KX01 40 nM, blue light 0 h", "value": 99, "unit": "%"},
      {"measurement": "inhibition at 0.08 µM", "setting": "[2]; A-431, 0 h, KX01 80 nM, blue light 0 h", "value": 99, "unit": "%"},
      {"measurement": "inhibition at 0.01 µM", "setting": "[2]; A-431, 2 h, KX01 10 nM, blue light 2 h", "value": 40, "unit": "%"},
      {"measurement": "inhibition at 0.02 µM", "setting": "[2]; A-431, 2 h, KX01 20 nM, blue light 2 h", "value": 97, "unit": "%"},
      {"measurement": "inhibition at 0.04 µM", "setting": "[2]; A-431, 2 h, KX01 40 nM, blue light 2 h", "value": 97, "unit": "%"},
      {"measurement": "inhibition at 0.08 µM", "setting": "[2]; A-431, 2 h, KX01 80 nM, blue light 2 h", "value": 95, "unit": "%"},
      {"measurement": "inhibition at 0.01 µM", "setting": "[2]; A-431, 4 h, KX01 10 nM, blue light 4 h", "value": 66, "unit": "%"},
      {"measurement": "inhibition at 0.02 µM", "setting": "[2]; A-431, 4 h, KX01 20 nM, blue light 4 h", "value": 76, "unit": "%"},
      {"measurement": "inhibition at 0.04 µM", "setting": "[2]; A-431, 4 h, KX01 40 nM, blue light 4 h", "value": 73, "unit": "%"},
      {"measurement": "inhibition at 0.08 µM", "setting": "[2]; A-431, 4 h, KX01 80 nM, blue light 4 h", "value": 75, "unit": "%"},
      {"measurement": "inhibition at 0.01 µM", "setting": "[2]; A-431, 6 h, KX01 10 nM, blue light 6 h", "value": 79, "unit": "%"},
      {"measurement": "inhibition at 0.02 µM", "setting": "[2]; A-431, 6 h, KX01 20 nM, blue light 6 h", "value": 81, "unit": "%"},
      {"measurement": "inhibition at 0.04 µM", "setting": "[2]; A-431, 6 h, KX01 40 nM, blue light 6 h", "value": 81, "unit": "%"},
      {"measurement": "inhibition at 0.08 µM", "setting": "[2]; A-431, 6 h, KX01 80 nM, blue light 6 h", "value": 82, "unit": "%"},
      {"measurement": "growth inhibition relative to untreated control", "setting": "[2]; KX01 10 nM, blue light 0 h", "value": "0% and 11%"},
      {"measurement": "growth inhibition relative to untreated control", "setting": "[2]; KX01 10 nM, blue light 2 h", "value": 44, "unit": "%"},
      {"measurement": "growth inhibition relative to untreated control", "setting": "[2]; KX01 10 nM, blue light 6 h", "value": 77, "unit": "%"},
      {"measurement": "growth inhibition relative to untreated control", "setting": "[2]; KX01 20 nM, blue light 0 h", "value": 80, "unit": "%"},
      {"measurement": "growth inhibition relative to untreated control", "setting": "[2]; KX01 20 nM, blue light 2 h", "value": 83, "unit": "%"},
      {"measurement": "growth inhibition relative to untreated control", "setting": "[2]; KX01 20 nM, blue light 4 h", "value": "69% and 74%"},
      {"measurement": "growth inhibition relative to untreated control", "setting": "[2]; KX01 20 nM, blue light 6 h", "value": 83, "unit": "%"},
      {"measurement": "growth inhibition relative to untreated control", "setting": "[2]; KX01 40 nM, blue light 0 h", "value": 100, "unit": "%"},
      {"measurement": "growth inhibition relative to untreated control", "setting": "[2]; KX01 40 nM, blue light 4 h", "value": 80, "unit": "%"},
      {"measurement": "growth inhibition relative to untreated control", "setting": "[2]; KX01 40 nM, blue light 6 h", "value": 86, "unit": "%"},
      {"measurement": "growth inhibition relative to untreated control", "setting": "[2]; KX01 80 nM, blue light 2 h", "value": 98, "unit": "%"},
      {"measurement": "growth inhibition relative to untreated control", "setting": "[2]; KX01 80 nM, blue light 4 h", "value": 84, "unit": "%"},
      {"measurement": "growth inhibition relative to untreated control", "setting": "[2]; KX01 80 nM, blue light 6 h", "value": 88, "unit": "%"},
      {"measurement": "effect of blue light exposure with the drug on cell growth inhibition", "setting": "[2]; for example at 10 nM KX01", "value": "Synergistic effects"}
    ]}
  ]
}
